According to patent publication US20220242851A1, “CRYSTAL FORM AND SALT OF QUINAZOLINE COMPOUND AND PREPARATION METHOD THEREOF” (SHENZHEN JINRUI FOUNDATION BIOTECH CO., LTD, priority 2019, published 2022):

Key:
HER1(ErbB1) = HER1(ErbB1) (Homo sapiens, UniProt P00533); assay: In vitro enzyme activity, HER1 (radiometric, Eurofins); format: biochemical; conditions: conclusion
Experimental: (§1) The purpose of this assay is to detect the in vitro inhibitory activity of compounds on HER1(ErbB1), HER2(ErbB2), and HER4(ErbB4). The enzymes used in this assay are human ErbB 1, ErbB2 and ErbB4. Eurofins Pharma Discovery Service provided the method for activity detection. Steps and method of the assay (96-well plate): A buffer solution of the assay compounds in a dilution of 5-fold (5 μL), polypeptide substrate poly(Glu, Tyr) (4:1) (2.5 μL), ErbB (4-20 ng, 2.5 μL), MnCl2 (50 mM, 1.25 μL), dH2O (3.75 μL), and [γ-^33P]ATP (10 μL) were added, and incubated at 30° C. for 10 minutes. The reaction was terminated by adding 3% phosphoric acid. 10 μL of the sample was taken and transferred to Filtermate A. The filter disc was washed 3 times with 75 mM phosphoric acid and once with methanol. The filter disc was transferred to a sealed plastic bag and the scintillation mixture (4 mL) was added. The intensity of the emitted photon was detected by a scintillation luminescence counter. The CPM (times/min) of the enzyme sample was compared with the CPM of the internal control sample. The level of photon intensity reflected the degree of the tyrosine kinase activity.

HER2(ErbB2) = HER2(ErbB2) (Homo sapiens, UniProt P04626); assay: In vitro enzyme activity, HER2 (radiometric, Eurofins); format: biochemical; conditions: conclusion
Chain of HER2(ErbB2) (P04626 23-1255): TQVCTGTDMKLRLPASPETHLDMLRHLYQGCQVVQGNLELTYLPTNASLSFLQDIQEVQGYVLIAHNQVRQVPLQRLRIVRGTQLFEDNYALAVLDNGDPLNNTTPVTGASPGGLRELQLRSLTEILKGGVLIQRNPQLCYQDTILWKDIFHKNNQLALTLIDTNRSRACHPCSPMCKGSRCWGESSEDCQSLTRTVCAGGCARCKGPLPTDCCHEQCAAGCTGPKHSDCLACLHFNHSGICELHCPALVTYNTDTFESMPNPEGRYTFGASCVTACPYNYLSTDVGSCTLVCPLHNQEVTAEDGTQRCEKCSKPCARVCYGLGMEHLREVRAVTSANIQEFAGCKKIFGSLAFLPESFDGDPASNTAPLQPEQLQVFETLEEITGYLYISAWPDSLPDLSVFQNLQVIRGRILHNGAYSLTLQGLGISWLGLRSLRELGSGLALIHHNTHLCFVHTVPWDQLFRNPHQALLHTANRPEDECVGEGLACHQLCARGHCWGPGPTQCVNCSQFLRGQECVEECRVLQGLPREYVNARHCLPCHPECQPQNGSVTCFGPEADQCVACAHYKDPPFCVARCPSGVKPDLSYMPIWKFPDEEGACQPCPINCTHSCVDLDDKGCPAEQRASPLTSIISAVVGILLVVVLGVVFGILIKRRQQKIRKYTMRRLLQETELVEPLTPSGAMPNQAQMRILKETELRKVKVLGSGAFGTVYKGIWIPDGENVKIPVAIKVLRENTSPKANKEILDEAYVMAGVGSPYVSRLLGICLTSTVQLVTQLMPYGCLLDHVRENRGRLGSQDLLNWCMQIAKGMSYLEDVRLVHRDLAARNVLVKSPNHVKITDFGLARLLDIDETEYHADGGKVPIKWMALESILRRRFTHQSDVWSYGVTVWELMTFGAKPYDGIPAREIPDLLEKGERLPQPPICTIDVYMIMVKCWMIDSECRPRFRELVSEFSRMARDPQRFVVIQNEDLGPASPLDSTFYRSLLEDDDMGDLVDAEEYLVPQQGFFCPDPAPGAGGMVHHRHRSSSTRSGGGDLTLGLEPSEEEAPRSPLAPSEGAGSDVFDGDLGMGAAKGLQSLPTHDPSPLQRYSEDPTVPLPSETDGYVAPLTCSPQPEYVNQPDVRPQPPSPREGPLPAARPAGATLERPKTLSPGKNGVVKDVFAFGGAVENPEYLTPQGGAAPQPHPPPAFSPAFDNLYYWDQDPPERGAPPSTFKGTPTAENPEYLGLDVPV
Experimental: as §1

NCI-N87 cell = assay: Inhibition of cell proliferation, Cell-Titer-Glo, NCI-N87; format: cell-based, human; conditions: conclusion
From the text: (§2) Purpose of the assay: the inhibitory activity of the assay compounds on cell proliferation was detected. Principle of the assay: the luciferase in a Cell-Titer-Glo reagent produces oxidized luciferin with luciferin, oxygen and ATP as reaction substrates, and releases energy in the form of light. Since the luciferase reaction requires ATP, the total amount of light generated by the reaction is proportional to the total amount of ATP that reflects cell viability. Cell line: NCI-N87 cell line (ATCC-CRL-5822), BT-474 cell line (ATCC-HTB-20), OE21 (ECACC-96062201) Cell culture medium: […] L-[…]×, Gibco#25030-081; penicillin-streptomycin Hyclone# SV30010) Cell Titer-Glo® cell viability assay kit with luminescence (Promega #G7573) 384-well cell culture plate (Greiner # 781090) Compound plate (LABCYTE # LP-0200) CO2 incubator (Thermo#371) Vi-cell cell counter (Beckman Coulter) According to the schematic diagram of the cell seed plate, cells were seeded in a 384- or 96-well plate at a density of 1000 cells per well and 25 μL per well, and 25 μL of PBS was added to the wells near edge of the place where no cells were seeded. (1) The stock solution of the compounds has a concentration of 10 mM, and the compounds were diluted with DMSO to an initial concentration of 4 mM. […] After 10 minutes, the plate was read on PerkinElmer Envision, and the […] reading time was set to 0.2 second.

OE21 cell = assay: Inhibition of cell proliferation, Cell-Titer-Glo, OE21; format: cell-based, human; conditions: conclusion
From the text: as §2

Pharmacokinetics in mice = format: in vivo, mouse
Experimental: Purpose of the assay: this assay aimed to investigate in vivo plasma pharmacokinetics of the example compound disclosed herein and the reference compound in female BALB/c mice after the single intravenous injection and intragastric administration thereof.
Animals of the assay: female BALB/c nude mice, 7-9 weeks old, weighted 17-23 grams; supplier: shanghai sippr bk laboratory animals Ltd.
Sample collection: at each time point, a 0.03 mL blood sample was collected from the saphenous vein of the assay animal by puncture, and the actual blood collection time was recorded. All blood samples were added into commercial EDTA-K2 anticoagulation tubes with a specification of 1.5 mL (the supplier was Jiangsu KANGJIAN Medical Apparatus Co., Ltd.). Within half an hour after the blood sample was collected, the blood sample was centrifuged at 3000 g at 4° C. for 10 minutes, and the supernatant plasma was drawn, quickly placed in dry ice, and stored in a refrigerator at −80° C. for LC-MS/MS analysis.
Data analysis: Plasma concentrations were processed using a non-compartmental model of WinNonlin™Version6.3 (Pharsight, MountainView, Calif.) pharmacokinetic software, and pharmacokinetic parameters Cmax, Tmax, T1/2, and AUC0-last were calculated using a linear log trapezoid method.

CYP1A2 = target: T1, CYP1A2 (Homo sapiens, UniProt P05177); assay: Inhibition of CYP enzyme activity in human liver microsome, CYP1A2; format: in vitro ADME; conditions: microsomes
T1 construct: in the assay of CYP enzyme activity in human liver microsome; from tissue; host or cells: human liver microsome
T1 sequence (P05177 1-516): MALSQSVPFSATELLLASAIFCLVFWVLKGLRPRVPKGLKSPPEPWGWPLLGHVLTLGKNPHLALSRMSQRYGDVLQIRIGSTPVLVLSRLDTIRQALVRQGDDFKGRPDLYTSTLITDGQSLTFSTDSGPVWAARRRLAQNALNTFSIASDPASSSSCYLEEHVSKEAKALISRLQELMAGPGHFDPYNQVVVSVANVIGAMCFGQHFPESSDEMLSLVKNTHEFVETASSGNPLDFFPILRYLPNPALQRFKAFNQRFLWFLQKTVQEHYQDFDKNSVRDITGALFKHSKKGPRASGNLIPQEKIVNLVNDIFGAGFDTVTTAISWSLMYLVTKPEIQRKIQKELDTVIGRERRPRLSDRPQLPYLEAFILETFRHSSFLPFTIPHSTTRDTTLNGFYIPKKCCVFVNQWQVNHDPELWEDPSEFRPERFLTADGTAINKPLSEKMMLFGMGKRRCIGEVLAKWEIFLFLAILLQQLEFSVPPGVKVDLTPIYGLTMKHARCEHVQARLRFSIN
From the text: (§3) The results of the compound disclosed herein and the reference compound Poziotinib in the assay of CYP enzyme activity in human liver microsome were shown in the following table (Table 17).

CYP2C9 = target: T2, CYP2C9 (Homo sapiens, UniProt P11712); assay: Inhibition of CYP enzyme activity in human liver microsome, CYP2C9; format: in vitro ADME; conditions: versus Poziotinib
T2 construct: in the assay of CYP enzyme activity in human liver microsome; from tissue; host or cells: human liver microsome
T2 sequence (P11712 whole entry): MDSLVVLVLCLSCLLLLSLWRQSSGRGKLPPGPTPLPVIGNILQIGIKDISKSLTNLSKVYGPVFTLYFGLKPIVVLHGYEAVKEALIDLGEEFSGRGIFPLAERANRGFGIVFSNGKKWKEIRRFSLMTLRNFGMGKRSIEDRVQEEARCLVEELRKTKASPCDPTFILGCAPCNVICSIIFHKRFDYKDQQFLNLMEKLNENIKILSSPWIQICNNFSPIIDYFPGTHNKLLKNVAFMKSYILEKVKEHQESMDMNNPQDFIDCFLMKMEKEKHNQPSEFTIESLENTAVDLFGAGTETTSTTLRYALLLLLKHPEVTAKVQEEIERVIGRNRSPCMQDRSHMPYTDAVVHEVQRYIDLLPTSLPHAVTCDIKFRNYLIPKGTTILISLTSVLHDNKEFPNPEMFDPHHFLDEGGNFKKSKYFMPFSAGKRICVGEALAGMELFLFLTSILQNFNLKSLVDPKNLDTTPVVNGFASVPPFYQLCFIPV
From the text: as §3

CYP2C19 = target: T3, CYP2C19 (Homo sapiens, UniProt P33261); assay: Inhibition of CYP enzyme activity in human liver microsome, CYP2C19; format: in vitro ADME
T3 construct: in the assay of CYP enzyme activity in human liver microsome; from tissue; host or cells: human liver microsome
T3 sequence (P33261 whole entry): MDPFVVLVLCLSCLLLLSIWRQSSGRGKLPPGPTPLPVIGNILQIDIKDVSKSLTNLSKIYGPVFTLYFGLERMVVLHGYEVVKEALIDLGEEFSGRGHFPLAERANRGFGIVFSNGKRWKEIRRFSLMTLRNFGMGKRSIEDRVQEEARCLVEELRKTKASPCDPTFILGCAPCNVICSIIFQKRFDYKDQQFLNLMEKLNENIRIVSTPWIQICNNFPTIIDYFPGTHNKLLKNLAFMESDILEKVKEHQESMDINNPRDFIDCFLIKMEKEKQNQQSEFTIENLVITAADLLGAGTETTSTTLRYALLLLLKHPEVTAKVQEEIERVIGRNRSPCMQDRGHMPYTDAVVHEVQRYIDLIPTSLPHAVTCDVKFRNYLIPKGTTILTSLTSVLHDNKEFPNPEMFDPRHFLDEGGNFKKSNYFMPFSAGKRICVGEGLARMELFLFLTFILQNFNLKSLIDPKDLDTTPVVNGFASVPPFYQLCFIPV
From the text: as §3

Chain of HER1(ErbB1) (P00533 25-1210): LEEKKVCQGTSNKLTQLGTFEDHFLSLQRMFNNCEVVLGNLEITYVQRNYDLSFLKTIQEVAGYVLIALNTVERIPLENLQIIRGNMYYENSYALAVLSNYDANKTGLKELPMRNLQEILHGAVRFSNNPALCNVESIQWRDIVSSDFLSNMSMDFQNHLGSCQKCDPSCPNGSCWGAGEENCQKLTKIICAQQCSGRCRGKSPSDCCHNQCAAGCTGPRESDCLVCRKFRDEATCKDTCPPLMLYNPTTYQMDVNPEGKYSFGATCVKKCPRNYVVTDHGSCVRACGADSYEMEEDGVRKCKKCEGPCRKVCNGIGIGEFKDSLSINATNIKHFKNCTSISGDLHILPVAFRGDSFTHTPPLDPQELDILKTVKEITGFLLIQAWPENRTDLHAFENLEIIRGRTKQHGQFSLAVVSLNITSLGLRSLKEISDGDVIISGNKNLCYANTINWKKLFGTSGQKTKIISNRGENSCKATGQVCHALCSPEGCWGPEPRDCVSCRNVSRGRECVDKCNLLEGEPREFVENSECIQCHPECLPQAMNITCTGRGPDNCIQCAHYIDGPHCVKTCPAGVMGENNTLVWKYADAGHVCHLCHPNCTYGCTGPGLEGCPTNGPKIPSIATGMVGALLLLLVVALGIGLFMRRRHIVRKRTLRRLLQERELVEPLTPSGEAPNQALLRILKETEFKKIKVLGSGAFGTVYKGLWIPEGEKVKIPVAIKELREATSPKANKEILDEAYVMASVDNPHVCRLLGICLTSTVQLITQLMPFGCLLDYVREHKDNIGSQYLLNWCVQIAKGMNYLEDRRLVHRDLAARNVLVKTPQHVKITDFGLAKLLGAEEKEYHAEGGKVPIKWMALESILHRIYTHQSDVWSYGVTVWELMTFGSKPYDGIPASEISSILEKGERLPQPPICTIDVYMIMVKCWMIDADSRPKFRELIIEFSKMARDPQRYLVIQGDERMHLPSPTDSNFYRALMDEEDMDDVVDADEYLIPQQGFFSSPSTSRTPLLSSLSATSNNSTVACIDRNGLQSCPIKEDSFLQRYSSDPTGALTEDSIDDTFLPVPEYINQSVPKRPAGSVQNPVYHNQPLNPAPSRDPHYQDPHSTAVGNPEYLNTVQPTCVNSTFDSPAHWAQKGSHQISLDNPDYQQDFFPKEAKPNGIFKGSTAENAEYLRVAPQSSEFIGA

## C=CC(=O)N1[C@@H]2CC[C@H]1C[C@H](Nc1cc3c(Nc4ccc(Cl)c(Cl)c4F)ncnc3cc1OC)C2 [Compound of formula (I)]
HER1(ErbB1)
  inhibitory activity on HER1 (in words): significant inhibitory activity
HER2(ErbB2)
  inhibitory activity on HER2 (in words): significant inhibitory activity
NCI-N87 cell
  inhibitory activity on the proliferation of NCI-N87 cells (in words): significant inhibitory activity
OE21 cell
  inhibitory activity on the proliferation of OE21 cells (in words): significant inhibitory activity
Pharmacokinetics in mice
  half-life compared with reference (in words): longer half-life than that of the reference compound
  oral plasma exposure compared with Poziotinib and control compound 2 (in words): significantly better oral plasma exposure
CYP1A2
  inhibitory activity on CYP1A2 (in words): no inhibitory activity
CYP2C9
  activity on CYP2C9, times better than the reference compound: 2 times
CYP2C19
  inhibitory activity on CYP2C19 compared with Poziotinib (in words): comparable to that of the reference compound Poziotinib
